Source: patent US20100022509A1, “Inhibitors of MshC and Homologs Thereof, and Methods of Identifying Same” (priority 2006, published 2010)
Read-outs that look alike come from different tables or passages of the source.

Target: T1, MshC (Mycobacterium tuberculosis, UniProt P9WJM9)
T1 sequence (P9WJM9 1-414): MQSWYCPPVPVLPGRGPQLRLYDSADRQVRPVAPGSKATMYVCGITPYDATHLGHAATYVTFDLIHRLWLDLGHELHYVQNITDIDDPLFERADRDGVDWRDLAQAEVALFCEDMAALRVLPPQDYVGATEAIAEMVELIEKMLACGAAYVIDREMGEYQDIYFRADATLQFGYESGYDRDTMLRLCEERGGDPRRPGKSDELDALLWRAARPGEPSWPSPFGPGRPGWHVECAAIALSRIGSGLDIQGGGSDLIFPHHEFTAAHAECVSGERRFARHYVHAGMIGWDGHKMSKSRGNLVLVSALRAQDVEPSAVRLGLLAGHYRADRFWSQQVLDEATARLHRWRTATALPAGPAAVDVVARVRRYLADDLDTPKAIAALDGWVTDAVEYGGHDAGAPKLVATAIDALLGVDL
Experiment: biochemical
Format: biochemical, M. tuberculosis

| SMILES | IC50 (IC50) [µM] | inhibition of MshC in words, 1,3-diaminopropyl residue with remote amino residue capable of protonation | inhibition of MshC in words, Z is a benzyl moiety bearing one or more halogens | inhibition of MshC in words, compounds grouped by X (X=S, X=SO, X=SO2) | IC50 (IC50, μM) [µM] | also measured |
| --- | --- | --- | --- | --- | --- | --- |
| O=C(NCCN1CCN(Cc2ccccc2)CC1)c1ccc2c(c1)N(Cc1cccc(Cl)c1)C(=O)c1ccccc1[S+]2[O-] (stereo not drawn) [Inhibitor 83-69] | 2500 ± 700 | – | – | – | – | inhibition of MshC in words, compounds lacking the basic amino group or with groups in excess of 10 carbons on the remote amino residue: little or no inhibition |
| O=C(NCCCN1CCOCC1)c1ccc2c(c1)N(Cc1cccc(Cl)c1)C(=O)c1ccccc1[S+]2[O-] (stereo not drawn) [Inhibitor 83-70] | 470 ± 130 | measurable inhibition | Measurable inhibition | – | – | inhibition of MshC in words, compounds grouped by X: Significant inhibition |
| O=C(NCCCN1CCCC1)c1ccc2c(c1)N(Cc1cccc(Cl)c1)C(=O)c1ccccc1[S+]2[O-] (stereo not drawn) [Inhibitor 83-72] | 97 ± 26 | measurable inhibition | Measurable inhibition | Significant inhibition | – | – |
| CCCN(CCC)CCCNC(=O)c1ccc2c(c1)N(Cc1cccc(Cl)c1)C(=O)c1ccccc1[S+]2[O-] (stereo not drawn) [Inhibitor 83-73] | ~200 | measurable inhibition | Measurable inhibition | Significant inhibition | – | – |
| CCCCSCCCNC(=O)c1ccc2c(c1)N(Cc1cccc(Cl)c1)C(=O)c1ccccc1[S+]2[O-] (stereo not drawn) [Inhibitor 83-74] | > 3000 | – | – | – | – | inhibition of MshC in words, compounds lacking the basic amino group or with groups in excess of 10 carbons on the remote amino residue: little or no inhibition |
| O=C(NCCN1CCCCCC1)c1ccc2c(c1)N(Cc1cccc(Cl)c1)C(=O)c1ccccc1[S+]2[O-] (stereo not drawn) [Inhibitor 83-75] | ~80 | measurable inhibition | Measurable inhibition | Significant inhibition | – | – |
| CCCCN(CCCNC(=O)c1ccc2c(c1)N(Cc1cccc(Cl)c1)C(=O)c1ccccc1[S+]2[O-])Cc1ccccc1 (stereo not drawn) [Inhibitor 83-76] | ≥ 3000 | – | – | – | – | – |
| CC1CC(C)CN(CCCNC(=O)c2ccc3c(c2)N(Cc2cccc(Cl)c2)C(=O)c2ccccc2S3(=O)=O)C1 (stereo not drawn) [Inhibitor 83-77] | 2300 ± 700 | – | – | – | – | – |
| O=C(NCCCN1CCCC1)c1ccc2c(c1)N(Cc1cccc(Cl)c1)C(=O)c1ccccc1S2(=O)=O [Inhibitor 83-78] | ~500 | measurable inhibition | Measurable inhibition | Significant inhibition | – | – |
| O=C(NCCN1CCN(Cc2ccccc2)CC1)c1ccc2c(c1)N(Cc1cccc(Cl)c1)C(=O)c1ccccc1S2(=O)=O [Inhibitor 83-79] | > 3000 | – | – | – | – | inhibition of MshC in words, compounds lacking the basic amino group or with groups in excess of 10 carbons on the remote amino residue: little or no inhibition |
| O=C(NCC1CCN(Cc2ccccc2)CC1)c1ccc2c(c1)N(Cc1cccc(Cl)c1)C(=O)c1ccccc1S2(=O)=O [Inhibitor 83-80] | > 3000 | – | – | – | – | – |
| CC(C)CN(CCCNC(=O)c1ccc2c(c1)N(Cc1cccc(Cl)c1)C(=O)c1ccccc1S2(=O)=O)CC(C)C [Inhibitor 83-81] | > 3000 | – | – | – | – | – |
| O=C(NCCCN1CCOCC1)c1ccc2c(c1)N(Cc1cccc(Cl)c1)C(=O)c1ccccc1S2(=O)=O [Inhibitor 83-82] | ~3000 | – | – | – | – | – |
| CCCN(CCC)CCCNC(=O)c1ccc2c(c1)N(Cc1cccc(Cl)c1)C(=O)c1ccccc1S2(=O)=O [Inhibitor 83-83] | 980 ± 40 | measurable inhibition | Measurable inhibition | Significant inhibition | – | – |
| CN(C)CCCNC(=O)c1ccc2c(c1)N(Cc1ccc(Cl)cc1)C(=O)c1ccccc1[S+]2[O-] (stereo not drawn) [Inhibitor 1028] | – | measurable inhibition | Measurable inhibition | – | 335 ± 15 | inhibition of MshC in words, compounds grouped by X: Significant inhibition |
| CC1CCCN(CCCNC(=O)c2ccc3c(c2)N(Cc2ccc(F)cc2)C(=O)c2ccccc2[S+]3[O-])C1 (stereo not drawn) [Inhibitor 1051] | – | measurable inhibition | Measurable inhibition | Significant inhibition | 710 ± 20 | – |
| Cc1ccc(C)c(CN2C(=O)c3ccccc3[S+]([O-])c3ccc(C(=O)NCCCN4CCCC4)cc32)c1 (stereo not drawn) [Inhibitor 1061] | – | measurable inhibition | – | Significant inhibition | 1600 ± 300 | inhibition of MshC in words, Z benzyl moiety with methyl groups in the 2,5 positions or unsubstituted: Weak but detectable inhibition |
| CCCCN(C)CCCNC(=O)c1ccc2c(c1)N(Cc1cc(C)ccc1C)C(=O)c1ccccc1[S+]2[O-] (stereo not drawn) [Inhibitor 1062] | – | measurable inhibition | – | – | ~2500 | inhibition of MshC in words, Z benzyl moiety with methyl groups in the 2,5 positions or unsubstituted: Weak but detectable inhibition |
| CCN1C(=O)c2ccccc2[S+]([O-])c2ccc(C(=O)NCCCN3CCOCC3)cc21 (stereo not drawn) [Inhibitor 1075] | – | – | – | – | > 3000 | – |

| SMILES | IC50 (IC50) [µM] | inhibition of MshC in words, 1,3-diaminopropyl residue with remote amino residue capable of protonation | inhibition of MshC in words, Z is a benzyl moiety bearing one or more halogens | inhibition of MshC in words, compounds grouped by X (X=S, X=SO, X=SO2) | IC50 (IC50, μM) [µM] | also measured |
| --- | --- | --- | --- | --- | --- | --- |
| CCN1C(=O)c2ccccc2[S+]([O-])c2ccc(C(=O)NCCN3CCCCCC3)cc21 (stereo not drawn) [Inhibitor 1081] | – | – | – | – | > 3000 | – |
| CCC1CCCCN1CCCNC(=O)c1ccc2c(c1)N(Cc1ccccc1F)C(=O)c1ccccc1[S+]2[O-] (stereo not drawn) [Inhibitor 1137] | – | measurable inhibition | Measurable inhibition | Significant inhibition | 1400 ± 700 | – |
| CC1CC(C)CN(CCCNC(=O)c2ccc3c(c2)N(Cc2ccccc2F)C(=O)c2ccccc2S3(=O)=O)C1 (stereo not drawn) [Inhibitor 1138] | – | – | – | – | > 3000 | – |
| Cc1ccc(C)c(CN2C(=O)c3ccccc3S(=O)(=O)c3ccc(C(=O)NCCN4CCCCC4)cc32)c1 [Inhibitor 1173] | – | – | – | – | > 2000 | – |
| Cc1ccc(CN2C(=O)c3ccccc3Sc3ccc(C(=O)NCC(C)CN4CCC(C)CC4)cc32)cc1 (stereo not drawn) [Inhibitor 1671] | – | – | – | – | > 3000 | – |
| Cc1ccc(CN2C(=O)c3ccccc3Sc3ccc(C(=O)NCCCN4CC(C)CC(C)C4)cc32)cc1 (stereo not drawn) [Inhibitor 1672] | – | – | – | – | > 3000 | – |
| CCN1C(=O)c2ccccc2Sc2ccc(C(=O)NCCCN(CC(C)C)CC(C)C)cc21 [Inhibitor 1751] | – | – | – | – | > 3000 | – |
| CCN1C(=O)c2ccccc2Sc2ccc(C(=O)NCCCN3CCCCC3)cc21 [Inhibitor 1754] | – | – | – | Significant inhibition | ~2000 | – |
| O=C(NCCCN1CCCCC1)c1ccc2c(c1)N(Cc1cccc(Cl)c1)C(=O)c1ccccc1S2 [Inhibitor 1776] | – | measurable inhibition | Measurable inhibition | Significant inhibition | 320 ± 50 | – |
| O=C(NCCCN1CCCC1)c1ccc2c(c1)N(Cc1cccc(Cl)c1)C(=O)c1ccccc1S2 [Inhibitor 1779] | – | measurable inhibition | Measurable inhibition | Significant inhibition | 135 ± 30 | – |
| O=C(NCc1cccs1)c1ccc2c(c1)N(Cc1cccc(Cl)c1)C(=O)c1ccccc1S2 [Inhibitor 1781] | – | – | – | – | > 3000 | – |
| CCC1CCCCN1CCNC(=O)c1ccc2c(c1)N(Cc1ccc(F)cc1Cl)C(=O)c1ccccc1S2 (stereo not drawn) [Inhibitor 1806] | – | – | Measurable inhibition | Significant inhibition | ~750 | – |
| CN(CCCNC(=O)c1ccc2c(c1)N(Cc1ccccc1Cl)C(=O)c1ccccc1S2)c1ccccc1 [Inhibitor 1920] | – | – | – | – | > 3000 | inhibition of MshC in words, compounds lacking the basic amino group or with groups in excess of 10 carbons on the remote amino residue: little or no inhibition |
| O=C(NCCCN1CCOCC1)c1ccc2c(c1)N(Cc1cccc(Cl)c1)C(=O)c1ccccc1S2 [Inhibitor 1937] | – | measurable inhibition | Measurable inhibition | Significant inhibition | 780 ± 120 | – |
| CN(CCCNC(=O)c1ccc2c(c1)N(Cc1cccc(Cl)c1)C(=O)c1ccccc1[S+]2[O-])C1CCCCC1 (stereo not drawn) [Inhibitor 1938] | – | measurable inhibition | Measurable inhibition | Significant inhibition | 102 ± 4 | – |
| CCOCCCNC(=O)c1ccc2c(c1)N(Cc1cccc(Cl)c1)C(=O)c1ccccc1[S+]2[O-] (stereo not drawn) [Inhibitor 1939] | – | – | – | – | 3200 ± 1000 | inhibition of MshC in words, compounds lacking the basic amino group or with groups in excess of 10 carbons on the remote amino residue: little or no inhibition |
| CCCCN(CCCNC(=O)c1ccc2c(c1)N(Cc1cccc(Cl)c1)C(=O)c1ccccc1[S+]2[O-])Cc1ccccc1 (stereo not drawn) [Inhibitor 1940] | – | – | – | – | > 3000 | inhibition of MshC in words, compounds lacking the basic amino group or with groups in excess of 10 carbons on the remote amino residue: little or no inhibition |
| CN(CCc1ccccc1)C(=O)c1ccc2c(c1)N(Cc1cccc(Cl)c1)C(=O)c1ccccc1S2(=O)=O [Inhibitor 1943] | – | – | – | – | > 3000 | – |
